The values below come from patent US20070112022A1, “Piperidine derivatives as ccr5 receptor modulators” (priority 2003, published 2007).

The structures appear in SMILES notation.

The term IC50 denotes the concentration that gives 50% inhibition.

The target in this assay is recombinant human CCR5 receptor (Homo sapiens, UniProt P51681). Put plainly: in vitro radioligand binding assay: inhibition of iodinated MIP-1α binding to CCR5 membranes (scintillation proximity). The note with it: displacement of 0.1 nM iodinated MIP-1α; membranes from Chinese hamster ovary cells expressing recombinant human CCR5; average if tested more than once. How it is done: The ability of compounds to inhibit the binding of MIP-1α was assessed by an in vitro radioligand binding assay. Membranes were prepared from Chinese hamster ovary cells which expressed the recombinant human CCR5 receptor. These membranes were incubated with 0.1 nM iodinated MIP-1α, scintillation proximity beads and various concentrations of the compounds of the invention in 96-well plates. The amount of iodinated MIP-1α bound to the receptor was determined by scintillation counting. Competition curves were obtained for compounds and the concentration of compound which displaced 50% of bound iodinated MIP-1α was calculated (IC50).
Sequence of recombinant human CCR5 receptor (P51681 whole entry): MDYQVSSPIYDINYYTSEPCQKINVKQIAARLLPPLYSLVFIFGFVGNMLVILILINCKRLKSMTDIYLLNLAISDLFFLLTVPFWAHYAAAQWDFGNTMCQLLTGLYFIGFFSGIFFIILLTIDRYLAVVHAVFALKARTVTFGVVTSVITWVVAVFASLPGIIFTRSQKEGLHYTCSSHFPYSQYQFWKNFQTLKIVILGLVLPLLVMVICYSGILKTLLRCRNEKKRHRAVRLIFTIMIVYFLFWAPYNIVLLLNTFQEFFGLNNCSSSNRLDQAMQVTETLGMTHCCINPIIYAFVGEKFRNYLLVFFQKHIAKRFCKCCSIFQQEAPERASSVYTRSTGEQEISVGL
In Table VI the results are presented as Pic50 values. A Pic50 value is the negative log (to base 10) of the IC50 result, so an IC50 of 1 μM (that is 1×10^−6M) gives a Pic50 of 6. If a compound was tested more than once then the data below is an average of the probative tests results.
On the technique in general: SPA uses beads or plates that emit light when radiolabelled molecules are held near them.
On to `CS(=O)(=O)c1ccc([C@@H](CCN2CCC(CNS(=O)(=O)c3ccc(-c4nnn[nH]4)cc3)CC2)c2cc(F)cc(F)c2)cc1` [Compound 19 (Table II), N-[(1-{(3R)-3-(3,5-difluorophenyl)-3-[4-(methylsulfonyl)phenyl]propyl}piperidin-4-yl)methyl]-4-(1H-tetrazol-5-yl)-benzenesulfonamide], for which the 50% inhibitory concentration (IC50) is 7.94 nM. The same measure for `CC(=O)Nc1ccc(S(=O)(=O)NCC2CCN(CC[C@@H](c3cc(F)cc(F)c3)C3CCN(S(C)(=O)=O)CC3)CC2)cc1` [Compound 4 (Table I), N-[4-({[(1-{(3R)-3-(3,5-difluorophenyl)-3-[1-(methylsulfonyl)piperidin-4-yl]propyl}piperidin-4-yl)methyl]amino}sulfonyl)phenyl]-acetamide]: 7.94 nM. Turning to `CS(=O)(=O)c1ccc([C@@H](CCN2CCC(CNS(=O)(=O)c3ccc(NS(=O)(=O)C(F)(F)F)cc3)CC2)c2cc(F)cc(F)c2)cc1` [Compound 16 (Table II), N-[(1-{(3R)-3-(3,5-difluorophenyl)-3-[4-(methylsulfonyl)phenyl]propyl}piperidin-4-yl)methyl]-4-{[(trifluoromethyl)sulfonyl]amino}-benzenesulfonamide], the IC50 was 50.1 nM.
